The record followed here is patent US20230277573A1, “OLIGOSACCHARIDE COMPOSITIONS AND METHODS OF USE” (DSM Nutritional Products, LLC, priority 2020, published 2023).

The subject of the test is western diet (WD)-induced obese low density lipoprotein receptor knock-out (ldlr−/−) mouse model. Put plainly: Western diet (WD)-induced obese ldlr−/− mouse model: blood, liver, aorta and body weight readouts. The format is in vivo. To be noted: WD-fed ldlr−/− mice, 16 wk, fenofibrate 100 mg/kg/day. The protocol: The therapeutic and microbiome effects of the selected oligosaccharide composition were tested in a validated western diet (WD)-induced obese low density lipoprotein receptor knock-out (ldlr^−/−) mouse model, thought to recapitulate a number of metabolic pathologies found in humans, including obesity, hyperglycemia, glucose intolerance, hyperinsulinemia, insulin resistance, severe hypercholesterolemia, hypertriglyceridemia, atherosclerosis, hepatic steatosis and hepatic inflammation. […]
9-11 weeks old male C57BL/6J ldlr^−/− mice were split into one of four treatment groups (12 animals per group, 4 animals per cage)—(1) no treatment (NT), (2) the selected oligosaccharide (as produced by the process described in Example 2), (3) a glucose/galactose-based oligosaccharide composition and (4) fenofibrate—for 16 weeks. […] The body weight for each animal was measured prior to the treatment period and weekly over the treatment period. 4-day food intake for each cage was measured weekly over the treatment period and averaged as food intake per mouse per day. […] For each animal, separate liver sections (˜100 mg each) were collected and frozen for the quantification of hepatic TG and hepatic TC. […] The aortic arch was surface stained with oil red O for the quantification of atherosclerotic plaque surface area.

For the compound `CC(C)OC(=O)C(C)(C)Oc1ccc(C(=O)c2ccc(Cl)cc2)cc1` [fenofibrate, Fenofibrate], the “body weight gain lowered by, compared to NT” value is given as 44%. Further, the “effect on food intake” value (OS 7.5% w/w in diet) is “no effect”.
